Assay results published in US11291654B2, “Formulations of cycloserine compounds and applications thereof” (SyneuRx International (Taiwan) Corp., priority 2018, dated 2022).
Where two headings read alike, the source gives them in different places.

Assay type: physicochemical
Method: 1. Stress Testing of D-cycloserine Stability test was held with 500 mg of commercially available D-cycloserine from Macleods Pharma, opened and stored under high humidity (>90% RH or 75% RH) at room temperature, a high temperature (40° C. or 60° C.) or a light condition for 10 days. […] In the following experiments, the total impurity was set up to confirm the stability of D-cycloserine.

N[C@H]1CONC1=O (stereo in doubt) [D-cycloserine (Macleods Pharma), 4-amino-3-isoxazolidinone]
Appearance (0 day): White Powder | Total Impurity (%) (0 day): 0.59% | Moisture-absorption Weight Gain (%) (25° C., 75% RH, 10 days): 0.25% | Total Impurity (%) (25° C., 75% RH, 10 days): 1.71% | Moisture-absorption Weight Gain (%) (25° C., >90% RH, 10 days): 21.11% | Total Impurity (%) (25° C., >90% RH, 10 days): 86.64% | Appearance (40° C., 10 days): White Powder | Total Impurity (%) (40° C., 10 days): 0.70% | Appearance (60° C., 10 days): White Powder | Total Impurity (%) (60° C., 10 days): 0.66% | Stability (in words) (10 days): relatively stable at 40 °C and 60 °C | Appearance (Light, 10 days): White Powder | Total Impurity (%) (Light, 10 days): 0.96%
